How the values were obtained:
Assay type in all cases: functional
[1] = test system: Tetranychus urticae; assay: Insecticidal activity against Tetranychus urticae (two-spotted spider mite) in kidney bean plant leaf assessed as mortality at 500 ppm after 2 days; settings: 48 h
[2] = test system: Henosepilachna vigintioctopunctata; assay: Insecticidal activity against third-instar larvae of Henosepilachna vigintioctopunctata assessed as mortality at 100 ppm after 2 days; settings: 48 h
[3] = test system: Chilo suppressalis; assay: Insecticidal activity against 5th instar larva of Chilo suppressalis assessed as mortality at 50 ug/g after 48 hr

Row | SMILES | mortality at 500 ppm [1] | mortality at 100 ppm [2] | mortality [3]
1 | CCOC(=O)C1(C(=O)c2ccccc2)SCC(N(C)C)CS1 (stereo unspecified) | 90% | 30% | 100%
2 | CCOP(=O)(OCC)C1(C#N)SCC(N(C)C)CS1 (stereo unspecified) | 100% | 5% | 100%
3 | CN(C)C1CSC(C(=O)c2ccccc2)SC1 (stereo unspecified) | 50% | 80% | 100%
4 | CN(C)C1CSC(C#N)(c2ccccc2)SC1 (stereo unspecified) | 100% | 30% | 100%
5 | C/C(=N\Nc1ccc(Br)cc1)C1SCC(N(C)C)CS1 (stereo unspecified) | 80% | 45% | 100%
6 | CN(C)C1CSC(C(=O)c2ccccc2)(C(=O)c2ccccc2)SC1 | 80% | 100% | 100%
7 | CCOC(=O)C1SCC(N(C)C)CS1 (stereo unspecified) | 100% | 45% | 80%
8 | CC(=O)C1(C(C)=O)SCC(N(C)C)CS1 | 40% | 70% | 100%
9 | CN(C)C1CSC(C(N)=O)(C(N)=O)SC1 | 60% | 100% | 100%
10 | CN(C)C1CSC(C#N)(C(N)=O)SC1 (stereo unspecified) | 100% | 85% | 100%
11 | CN(C)C1CSC(C#N)SC1 (stereo unspecified) | 80% | 30% | 100%
12 | CNC(=O)OC1CSC(C#N)(c2ccc(Cl)cc2)SC1 (stereo unspecified) | 30% | – | 0%
13 | CN(C)C1CSC(C#N)(c2ccc(Cl)cc2)SC1 (stereo unspecified) | 100% | – | 100%
14 | CNC1CSC(C#N)(c2ccc(Cl)cc2)SC1 (stereo unspecified) | 30% | – | 10%
15 | CC(C)C(C(=O)OC1CSC(C#N)(c2ccc(Cl)cc2)SC1)c1ccc(Cl)cc1 (stereo unspecified) | 20% | – | 0%
16 | CN(C)C1CSSC1 [NEREISTOXIN] | 30% | – | 100%
17 | CN(C)C1CSC(C#N)(C#N)SC1 | 90% | 100% | 100%
18 | CCN(CC)C(=S)SC1(C#N)SCC(N(C)C)CS1 (stereo unspecified) | 90% | 100% | 100%
19 | CN(C)C1CSCSC1 | 20% | 10% | 30%

Row | SMILES | mortality at 500 ppm [1] | mortality at 100 ppm [2] | mortality [3]
20 | N#CC1(c2ccc(Cl)cc2)SCC(OC(=O)Nc2ccc(Cl)cc2)CS1 (stereo unspecified) | 60% | – | 0%
21 | CC1SCC(N(C)C)CS1 (stereo unspecified) | 30% | 10% | 10%
22 | CCN(CC)C1CSC(C#N)(c2ccc(Cl)cc2)SC1 (stereo unspecified) | 100% | – | 100%
23 | N#CC1(c2ccc(Cl)cc2)SCC(N2CCCC2)CS1 (stereo unspecified) | 100% | – | 50%
24 | N#CC1(c2ccc(Cl)cc2)SCC(N2CCOCC2)CS1 (stereo unspecified) | 90% | – | 50%
25 | CC(=O)C1(C(=O)c2ccccc2)SCC(N(C)C)CS1 (stereo unspecified) | 80% | 35% | 100%
26 | N#CC1(C(=O)O)SCCCS1 | 0% | – | 0%
27 | CCOC(=O)C1(C(C)=O)SCC(N(C)C)CS1 (stereo unspecified) | 100% | 30% | 100%
28 | CCCCN(CCCC)C1CSC(C#N)(c2ccc(Cl)cc2)SC1 (stereo unspecified) | 100% | – | 50%
29 | CNC(=O)C1(C#N)SCC(N(C)C)CS1 (stereo unspecified) | 100% | 85% | 100%
30 | CCOC(=O)C1(C(=O)OCC)SCC(N(C)C)CS1 | 100% | 85% | 100%
31 | N#CC1(c2ccc(Cl)cc2)SCC(O)CS1 (stereo unspecified) | 30% | – | 0%
32 | CCOP(=S)(OCC)OC1CSC(C#N)(c2ccc(Cl)cc2)SC1 (stereo unspecified) | 40% | – | 0%
33 | O=C(c1ccccc1)C1(C(=O)c2ccccc2)SCC(O)CS1 | 40% | – | 0%
34 | CC(=O)C1SCC(N(C)C)CS1 (stereo unspecified) | 100% | 65% | 100%
35 | CCCC1(C#N)SCC(N(C)C)CS1 (stereo unspecified) | 70% | 30% | 100%
36 | CCOC(=O)C1(C#N)SCC(N(C)C)CS1 (stereo unspecified) | 100% | 60% | 100%
37 | N#CC1(c2ccc(Cl)cc2)SCCCS1 | 0% | – | 0%
